Measurements: patent US20080306064A1, “Benzimidazole Derivatives” (priority 2005, published 2008)

Target: T1, Human recombinant CXCR2 receptor (Homo sapiens, UniProt P25025)
T1 construct: Biosignal Packard Inc. (Kb, GTPγS assay); host or cells: CHO-K1
T1 sequence (P25025 1-360): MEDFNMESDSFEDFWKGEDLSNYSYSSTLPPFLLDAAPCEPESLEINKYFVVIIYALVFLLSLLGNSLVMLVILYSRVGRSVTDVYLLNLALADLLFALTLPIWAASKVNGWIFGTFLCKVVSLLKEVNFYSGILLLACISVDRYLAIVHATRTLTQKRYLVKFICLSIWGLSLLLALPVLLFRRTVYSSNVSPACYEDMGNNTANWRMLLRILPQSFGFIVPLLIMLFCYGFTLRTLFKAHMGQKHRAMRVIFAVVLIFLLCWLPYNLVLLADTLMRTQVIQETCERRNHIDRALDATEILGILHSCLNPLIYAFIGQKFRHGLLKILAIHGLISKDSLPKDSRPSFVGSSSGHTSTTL
Assay: Receptor Binding Assay ([125I] IL-8, Ki) or [35S]-GTPγS Binding Assay (Kb) for human CXCR2 receptor
Conditions: CHO-K1 membranes expressing human CXCR2; Ki from Receptor Binding Assay, Kb from [35S]-GTPγS Binding Assay; table does not say which applies per value; compounds are trifluoroacetic acid salts
Experimental: [^125I] IL-8 (human recombinant) was obtained from Amersham Pharmacia Biotech., with specific activity 2000 Ci/mmol. All other chemicals were of analytical grade. Human recombinant CXCR2 receptor expressed in Chinese hamster ovary cells (CHO-K1) was purchased from Euroscreen. The Chinese hamster ovary membranes were prepared according to protocol supplied by Euroscreen. Membrane protein concentration was determined using a Bio-Rad protein assay. Assays were performed in a 96-well micro plate format according the method described in White, et al., J Biol Chem., 1998, 273, 10095). Each reaction mixture contained 0.05 mg/ml CXCR2 membrane protein in 20 mM Bis-Tris-propane, pH 8.0, containing 1.2 mM MgSO4, 0.1 mM EDTA, 25 mM NaCl and 0.03% CHAPS. In addition, compound of interest was added which had been pre-dissolved in dimethylsulphoxide (DMSO) so as to reach a final concentration of between 10 μM and 0.0005 μM (final concentration of DMSO 2% (v/v)). Binding was initiated by addition of 0.02 nM ^125I-IL-8. After 2 hours at room temperature the plate was harvested using a Brandell™ 96-well harvester onto glass fibre filter plate (GF/c) blocked with 1% polyethyleneimine+0.5% BSA and washed 3 times with 25 mM NaCl, 10 mM TrisHCl, 1 mM MgSO4, 0.5 mM EDTA, 0.03% CHAPS, pH 7.4. The filter was dried at 50° C. overnight. Backseal was then applied to the plate and 50 μl of liquid scintillation fluid added. The counts were then measured on the Packard Topcount™ scintillation counter.
[^35S]-GTPγS Binding Assay for Human CXCR2 Receptor Using SPA Technology
[^35S]-GTPγS (with specific activity 1082 Ci/mmol) and wheat germ agglutinin poly vinyl toluene scintillation proximity beads were purchased from Amersham Pharmacia Biotech. The Chinese hamster ovary cell (CHO-K1) membranes expressing human CXCR2 receptors were purchased from Biosignal Packard Inc. All other chemicals were of analytical grade. White non-binding surface 96 well Optiplate™ microplates were obtained from Packard. Recombinant human IL-8 was synthesised, cloned and expressed in Escherichia coli as described previously (Lindley I, et al., Proc. Natl. Acad. Sci., 1988, 85(23):9199).
The assay was performed in duplicate in 96 well Optiplate™ microplate in a final volume of 250 μl per well. Compounds were diluted in DMSO (0.5% final concentration) and incubated in 20 mM HEPES buffer pH 7.4 containing 10 mM MgCl2, 100 mM NaCl, 1 mM EDTA plus 100 nM IL-8, 50 VM GDP and 500 pM [^35S]GTPγS per well. SPA beads (1 mg/well final concentration) were pre-mixed with the membranes ([…] final concentration) in assay buffer: 20 mM HEPES buffer pH 7.4 containing 10 mM MgCl2, 100 mM NaCl, 1 mM EDTA. The bead membrane mixture was then added to each well, plates were sealed and incubated at room temperature for 60 minutes. After which time the plate was centrifuged and immediately read on Packard TopCount™ scintillation counter, program [^35S dpm] for 1 min/well. Data was expressed as the % response to 100 nM IL-8 minus basal.
Ki data and Kb data are determined in the aforementioned Receptor Binding and [^35S]-GTPγS Binding Assays respectively.

In the case of `Cn1ccc(-c2cc(C(=O)O)c3[nH]c(Nc4cccc(Cl)c4Cl)nc3c2)n1` [Example 12], the Ki is reported as 1800 nM.
For `O=C(O)c1cc(F)cc2nc(Nc3cccc(Cl)c3Cl)[nH]c12` [Example 1, 2-(2,3-Dichloro-phenylamino)-6-fluoro-3H-benzoimidazole-4-carboxylic acid], the Ki was 200 nM.
`O=C(O)c1cccc2nc(Nc3ccccc3-c3ccccc3)[nH]c12` [Example 5] was tested, and the Ki was 1200 nM.
Work on `Cc1c(F)cccc1Nc1nc2cccc(C(=O)O)c2[nH]1` [Example 3] yielded a Ki of 800 nM.
Work on `O=C(O)c1cc(-c2ccoc2)cc2nc(Nc3cccc(Cl)c3Cl)[nH]c12` [Example 10] yielded a Ki of 1500 nM.
